Laboratory results published in ChEMBL document CHEMBL5291721, “A preclinical secondary pharmacology resource illuminates target-adverse drug reaction associations of marketed drugs” (Nat Commun, 2023).

Legend:
Histamine H1 receptor = Histamine H1 receptor (Homo sapiens, UniProt P35367)
Vasopressin V2 receptor = Vasopressin V2 receptor (Homo sapiens, UniProt P30518)
[1] = molecular target: T1, Muscarinic acetylcholine receptor M2 (Homo sapiens, UniProt P08172); assay type: functional, cell-based
T1 sequence (P08172 whole entry): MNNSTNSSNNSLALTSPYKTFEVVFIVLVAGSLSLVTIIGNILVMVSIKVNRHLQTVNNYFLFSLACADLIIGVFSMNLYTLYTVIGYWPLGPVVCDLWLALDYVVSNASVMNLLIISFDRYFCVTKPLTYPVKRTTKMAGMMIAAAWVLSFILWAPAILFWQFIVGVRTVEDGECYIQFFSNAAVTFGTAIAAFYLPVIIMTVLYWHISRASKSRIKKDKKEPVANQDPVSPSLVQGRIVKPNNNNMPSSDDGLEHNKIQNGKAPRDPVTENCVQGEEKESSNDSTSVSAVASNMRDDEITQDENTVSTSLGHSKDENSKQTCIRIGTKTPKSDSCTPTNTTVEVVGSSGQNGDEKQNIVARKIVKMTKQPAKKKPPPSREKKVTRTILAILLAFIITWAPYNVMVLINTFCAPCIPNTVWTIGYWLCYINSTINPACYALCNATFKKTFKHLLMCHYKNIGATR

[2] = molecular target: T2, Cholecystokinin receptor type A (Homo sapiens, UniProt P32238)
T2 sequence (P32238 whole entry): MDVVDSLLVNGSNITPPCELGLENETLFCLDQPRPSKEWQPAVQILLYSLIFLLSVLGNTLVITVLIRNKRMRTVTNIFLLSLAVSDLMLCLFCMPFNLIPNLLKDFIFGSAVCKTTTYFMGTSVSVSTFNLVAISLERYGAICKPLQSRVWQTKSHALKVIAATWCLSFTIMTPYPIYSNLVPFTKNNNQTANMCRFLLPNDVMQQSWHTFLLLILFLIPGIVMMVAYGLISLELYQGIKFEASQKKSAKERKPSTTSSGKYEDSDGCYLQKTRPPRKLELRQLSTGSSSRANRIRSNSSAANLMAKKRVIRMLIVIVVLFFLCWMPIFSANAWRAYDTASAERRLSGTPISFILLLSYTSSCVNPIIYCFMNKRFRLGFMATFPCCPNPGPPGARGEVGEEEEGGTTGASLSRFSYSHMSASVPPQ

Thromboxane A2 receptor = molecular target: T3, Thromboxane A2 receptor (Homo sapiens, UniProt P21731)
T3 sequence (P21731 whole entry): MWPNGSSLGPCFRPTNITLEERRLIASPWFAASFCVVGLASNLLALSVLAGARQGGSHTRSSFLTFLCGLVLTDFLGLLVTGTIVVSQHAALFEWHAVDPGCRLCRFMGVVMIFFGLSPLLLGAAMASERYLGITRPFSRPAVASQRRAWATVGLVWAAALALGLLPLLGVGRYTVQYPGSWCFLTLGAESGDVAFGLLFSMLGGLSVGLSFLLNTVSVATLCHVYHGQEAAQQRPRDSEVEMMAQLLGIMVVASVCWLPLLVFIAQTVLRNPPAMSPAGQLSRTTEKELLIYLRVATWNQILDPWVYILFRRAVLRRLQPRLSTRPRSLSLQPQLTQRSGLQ

[3] = molecular target: Gamma-aminobutyric acid receptor subunit alpha-1 (Rattus norvegicus, UniProt P62813); assay type: functional
Sequence of Gamma-aminobutyric acid receptor subunit alpha-1 (P62813 whole entry): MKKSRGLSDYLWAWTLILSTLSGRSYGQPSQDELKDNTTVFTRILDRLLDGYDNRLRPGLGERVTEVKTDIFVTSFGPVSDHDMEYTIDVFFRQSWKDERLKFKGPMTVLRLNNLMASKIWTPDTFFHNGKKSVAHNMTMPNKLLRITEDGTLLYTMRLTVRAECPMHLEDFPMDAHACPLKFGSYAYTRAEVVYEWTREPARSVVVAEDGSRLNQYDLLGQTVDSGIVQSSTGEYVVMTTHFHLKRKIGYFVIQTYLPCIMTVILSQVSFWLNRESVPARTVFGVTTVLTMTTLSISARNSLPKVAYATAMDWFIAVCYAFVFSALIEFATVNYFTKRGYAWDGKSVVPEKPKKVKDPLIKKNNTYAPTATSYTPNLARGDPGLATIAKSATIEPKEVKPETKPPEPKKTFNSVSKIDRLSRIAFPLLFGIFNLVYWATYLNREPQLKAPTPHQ

[4] = molecular target: Kappa-type opioid receptor (Homo sapiens, UniProt P41145)
Sequence of Kappa-type opioid receptor (P41145 whole entry): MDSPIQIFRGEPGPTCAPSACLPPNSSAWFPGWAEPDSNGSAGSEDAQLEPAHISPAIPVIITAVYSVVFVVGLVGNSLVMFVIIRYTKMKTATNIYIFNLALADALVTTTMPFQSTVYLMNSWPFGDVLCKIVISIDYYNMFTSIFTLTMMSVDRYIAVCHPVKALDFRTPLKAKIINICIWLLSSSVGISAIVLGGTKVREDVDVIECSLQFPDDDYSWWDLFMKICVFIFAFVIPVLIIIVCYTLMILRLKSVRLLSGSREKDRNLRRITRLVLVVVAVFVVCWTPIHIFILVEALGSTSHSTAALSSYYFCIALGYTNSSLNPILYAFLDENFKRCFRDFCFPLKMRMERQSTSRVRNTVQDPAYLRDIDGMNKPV

[5] = molecular target: T4, Amine oxidase [flavin-containing] A (Homo sapiens, UniProt P21397); assay type: functional
T4 sequence (P21397 whole entry): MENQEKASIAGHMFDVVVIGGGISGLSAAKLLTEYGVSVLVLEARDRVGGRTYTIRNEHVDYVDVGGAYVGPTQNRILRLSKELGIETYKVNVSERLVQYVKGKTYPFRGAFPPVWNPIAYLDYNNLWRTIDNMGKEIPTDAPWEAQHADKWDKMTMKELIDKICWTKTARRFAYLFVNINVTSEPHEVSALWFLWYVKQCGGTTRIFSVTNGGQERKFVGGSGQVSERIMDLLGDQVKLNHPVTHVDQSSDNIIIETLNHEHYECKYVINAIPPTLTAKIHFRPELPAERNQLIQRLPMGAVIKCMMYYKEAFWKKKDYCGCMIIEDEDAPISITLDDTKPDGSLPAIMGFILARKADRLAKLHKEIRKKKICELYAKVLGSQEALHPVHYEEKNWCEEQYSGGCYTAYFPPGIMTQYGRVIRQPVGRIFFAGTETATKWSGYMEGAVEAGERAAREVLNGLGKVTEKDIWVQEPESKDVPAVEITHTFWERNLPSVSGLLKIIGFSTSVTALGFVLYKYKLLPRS

[6] = molecular target: T5, Alpha-1A adrenergic receptor (Homo sapiens, UniProt P35348); assay type: functional, cell-based
T5 sequence (P35348 whole entry): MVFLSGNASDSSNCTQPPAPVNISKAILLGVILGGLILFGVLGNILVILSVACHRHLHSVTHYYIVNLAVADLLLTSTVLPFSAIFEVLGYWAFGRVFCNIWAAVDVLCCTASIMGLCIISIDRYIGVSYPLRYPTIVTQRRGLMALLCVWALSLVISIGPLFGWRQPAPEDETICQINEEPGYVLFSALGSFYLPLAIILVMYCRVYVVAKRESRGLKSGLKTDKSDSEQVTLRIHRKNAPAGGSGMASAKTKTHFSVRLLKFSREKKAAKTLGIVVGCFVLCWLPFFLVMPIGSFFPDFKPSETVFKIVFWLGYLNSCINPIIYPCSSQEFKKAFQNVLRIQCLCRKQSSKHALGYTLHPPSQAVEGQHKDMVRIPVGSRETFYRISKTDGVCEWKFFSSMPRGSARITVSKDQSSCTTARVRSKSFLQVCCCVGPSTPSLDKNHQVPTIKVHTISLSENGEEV
Note: assay procedure not described here.

Sequence of Vasopressin V2 receptor (P30518 whole entry): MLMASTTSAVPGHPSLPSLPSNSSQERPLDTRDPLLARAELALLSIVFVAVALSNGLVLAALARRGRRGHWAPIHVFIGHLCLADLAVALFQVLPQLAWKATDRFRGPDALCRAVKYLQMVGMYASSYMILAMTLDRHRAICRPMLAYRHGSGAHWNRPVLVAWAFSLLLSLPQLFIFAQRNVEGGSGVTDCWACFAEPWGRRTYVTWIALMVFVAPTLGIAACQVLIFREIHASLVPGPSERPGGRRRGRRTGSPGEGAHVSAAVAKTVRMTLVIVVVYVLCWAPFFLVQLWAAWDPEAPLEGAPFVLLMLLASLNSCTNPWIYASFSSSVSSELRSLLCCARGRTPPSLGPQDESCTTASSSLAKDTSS
Sequence of Histamine H1 receptor (P35367 whole entry): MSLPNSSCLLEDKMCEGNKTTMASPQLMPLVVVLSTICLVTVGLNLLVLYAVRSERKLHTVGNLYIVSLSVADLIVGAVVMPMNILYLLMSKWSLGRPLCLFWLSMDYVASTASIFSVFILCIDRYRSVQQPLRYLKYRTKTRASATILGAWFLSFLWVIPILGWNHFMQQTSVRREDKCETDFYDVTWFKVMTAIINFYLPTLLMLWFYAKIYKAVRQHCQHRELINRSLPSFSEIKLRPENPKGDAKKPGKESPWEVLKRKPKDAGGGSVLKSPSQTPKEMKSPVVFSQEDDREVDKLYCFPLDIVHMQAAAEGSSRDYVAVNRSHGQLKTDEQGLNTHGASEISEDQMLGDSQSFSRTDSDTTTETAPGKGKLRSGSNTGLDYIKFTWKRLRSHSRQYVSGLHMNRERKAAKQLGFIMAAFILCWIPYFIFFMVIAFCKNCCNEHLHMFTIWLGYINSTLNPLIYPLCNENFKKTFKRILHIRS

Structure (SMILES) | AC50 (Histamine H1 receptor) [µM] | AC50 (Vasopressin V2 receptor) [µM] | AC50 [1] [µM] | AC50 [2] [µM] | AC50 (Thromboxane A2 receptor) [µM] | AC50 [3] [µM] | AC50 [4] [µM] | AC50 [5] [µM] | AC50 [6] [µM]
CCC(=O)OCC(=O)[C@@]1(OC(=O)CC)[C@@H](C)C[C@H]2[C@@H]3CCC4=CC(=O)C=C[C@]4(C)[C@@]3(F)[C@@H](O)C[C@@]21C [BETAMETHASONE DIPROPIONATE] | > 30 | > 30 | > 30 | > 30 | > 30 | > 30 | > 30 | > 30 | > 30
Cc1ccc2c(-c3ccccc3)nc(=O)n(C(C)C)c2c1 [PROQUAZONE] | > 30 | > 30 | > 30 | > 30 | 11 | > 30 | > 30 | > 30 | > 30
CN1CCN(c2c(F)cc3c(=O)c(C(=O)O)cn4c3c2SCC4)CC1 [RUFLOXACIN] | > 30 | > 30 | > 30 | > 30 | > 30 | > 30 | > 30 | > 30 | > 30
CC(=O)c1ccc2c(c1)N(CCCN1CCC(CCO)CC1)c1ccccc1S2 [PIPERACETAZINE] | 0.034 | > 30 | 24 | > 30 | > 30 | > 30 | 4 | > 30 | 0.14
CCCN(CC)C(CC)C(=O)Nc1c(C)cccc1C (stereo not given) [ETIDOCAINE] | > 30 | > 30 | > 30 | > 30 | > 30 | > 30 | > 30 | > 30 | > 30
CC(=O)OCC(=O)[C@@]1(O)CC[C@H]2[C@@H]3CCC4=CC(=O)CC[C@]4(C)C3=CC[C@@]21C [ANECORTAVE ACETATE] | > 10 | > 10 | > 10 | > 10 | > 10 | > 10 | > 10 | > 10 | > 30
N=C(N)NCCCCCCC(=O)NC(O)C(=O)NCCCCNCCCN (stereo not given) | > 30 | > 30 | > 30 | > 30 | > 30 | > 30 | > 30 | > 30 | > 30
CCOC(=O)NNc1ccc(N(CC)CC(C)O)nn1 (stereo not given) [CADRALAZINE] | > 30 | > 30 | > 30 | > 30 | > 30 | > 30 | > 30 | > 30 | > 30
CC(C)c1cc2c(cc1S(=O)(=O)O)[C@@]1(C)CCC[C@@](C)(C(=O)O)[C@@H]1CC2 [ECABET] | > 30 | > 30 | > 30 | > 30 | > 30 | > 30 | 19 | > 30 | > 30
CC(C)OC(=O)C(C(=O)OC(C)C)=C1SC=CS1 [MALOTILATE] | > 30 | > 30 | > 30 | > 30 | > 30 | 15 | > 30 | > 30 | 28
